Paper PMC8012596, “Hypouricemic agents reduce indoxyl sulfate excretion by inhibiting the renal transporters OAT1/3 and ABCG2” (Scientific Reports, 2021)
Counter-ions that a name gives are not always drawn. Like-named read-outs stand apart in the source and are kept apart here.

Assays:
[1] = set-up: method as in PMID 29016645; conditions: in humans; cited from earlier work
[2] = tested on: adenine-induced acute renal failure rats; assay: Effect of hypouricemic agents on pharmacokinetics of d4-IS in adenine-induced acute renal failure rats; type: in vivo, Wistar rats; conditions: in words
Description: Wistar rats were orally administered 600 mg/kg of adenine, once daily for 5 days. One week after the last administration, urine samples were collected for 4 h. Furthermore, blood samples were obtained from the jugular vein under the isoflurane anesthesia. […] Creatinine level in the plasma and urine was measured using the U-3900 spectrophotometer (Hitachi High-Tech Science Corp., Tokyo, Japan) with the L-type Wako Creatinine F kit (Wako Pure Chemical Industries, Ltd., Osaka, Japan). Creatinine clearance (CLCRE) was calculated using the following equation: CLCRE = [urine creatinine level (mg/dl) × urine volume (ml/min)] / plasma creatinine level (mg/dl) / body weight (kg). […] Four days later, the rats were selected based on the weight and serum creatinine level, and used in the study. In the intact group, the rats were used 4 days after the urine and blood sampling.

[3] = tested on: intact rats; assay: Effect of hypouricemic agents on endogenous IS pharmacokinetics in intact rats; conditions: for Effect on plasma concentration of endogenous IS: in words; for Kidney IS concentration compared with control: endogenous IS, at 4 h
Description: Thirty minutes after drug administration, 0.3 mg/kg d^4-IS dissolved in saline was intravenously administered via the tail vein to all rats. Blood samples were obtained from the jugular vein at 0.083, 0.25, 0.5, 1, 2, and 4 h after d^4-IS administration using a heparinized needle and kept on ice, and then the kidney was isolated with the rats under isoflurane anesthesia. Plasma was obtained by centrifuging the blood samples at 1000 × g for 10 min at 4 °C. To prepare the kidney sample, 4-times volume of saline was added to the sample and homogenized.
Endogenous IS and d^4-IS were determined in these samples as previously described with slightly modifications[10]. Briefly, the plasma and kidney homogenates were deproteinized using the internal standard containing methanol. These samples were measured using a liquid chromatography-tandem mass spectrometry (LC–MS/MS) systems consisting of a Nexera X2 and a Prominence instrument (Shimadzu Corp., Kyoto, Japan) coupled with QTRAP4500 (AB SCIEX, LLC., Framingham, MA). Pharmacokinetic parameters (AUC0-4 hr, C0, V0, T1/2, and CLtot) were analyzed using the Phoenix WinNonlin 6.4 software (Certara, L.P., Princeton, NJ). Some pharmacokinetic parameters were calculated using the following equations, in which "IS" means endogenous IS or d^4-IS. CLR, plasma = (urine IS concentration × urine volume) / AUC0-4 hr. CLR, kidney = (urine IS concentration × urine volume) / (kidney IS concentration at 4 h × 4). Kp = kidney IS concentration at 4 h / plasma IS concentration at 4 h.

[4] = set-up: method as in Pharmaceuticals and Medical Devices Agency; conditions: ref Pharmaceuticals and Medical Devices Agency; cited from earlier work
[5] = set-up: method as in Pharmaceuticals and Medical Devices Agency; conditions: ref Pharmaceuticals and Medical Devices Agency, read-out: Cmax at clinical dose, cited from earlier work
[6] = tested on: intact rats; assay: Effect of hypouricemic agents on pharmacokinetics of intravenously administered d4-IS in intact rats; type: in vivo, Wistar rats; set-up: concentration or dose not given beside the values
[7] = Plasma concentration of hypouricemic agents in intact and adenine-induced acute renal failure rats; type: in vivo, Wistar rats; conditions: Supplemental Fig. 2; in words
Description: Supplemental Fig. 1 Full-length blots/gels of renal expression of OAT1 (A/D), OAT3 (B/E), and ABCG2 (C/F) protein in intact and adenine-induced acute renal failure rats The chemiluminescence in blots and the proteins in gels were detected using ChemiDoc XRS Plus (Bio-Rad Laboratories, Inc.).
Supplemental Fig. 2 Plasma concentration of hypouricemic agents in intact rats and adenine-induced acute renal failure rats
Plasma drug concentration was measured using the same samples for measuring endogenous IS and d4-IS. Plasma samples were deproteinated with thrice volume of methanol and centrifuged at 1,000 × g for 10 min at 4°C. Drug concentrations were measured using the Alliance 2695 HPLC system (Waters Corporation. Milford, MA).

Row | Compound | plasma protein binding ratio [1] [%] | Effect on plasma concentration of d4-IS [2] | Effect on plasma concentration of endogenous IS [3] | fu (unbound fraction rate) [4] | Cmax ([5]; Cmax of q.d. administration, at a dose of 4 mg, for 1 weeks) [µM] | Decrease of CLR, plasma of d4-IS compared with control [6] [%] | Decrease of CLtot of d4-IS compared with control [6] [%] | Plasma concentrations of the drugs in adenine-induced acute renal failure rats versus intact rats [7] | Decrease of CLR, plasma of endogenous IS compared with control [3] [%] | Increase of AUC0-4 hr of endogenous IS compared with control [3] [%] | Kidney IS concentration compared with control [3] [times] | Cmax ([5]; mean concentration of q.i.d. administration, at a dose of 2 g, for 4 weeks) [µM] | Decrease of CLR, kidney of endogenous IS compared with control [3] [%] | Decrease of CLR, kidney of d4-IS compared with control [6] [%]
1 | O=S(=O)(O)Oc1c[nH]c2ccccc12 [IS, Indoxyl sulfate] | 93 | – | – | – | – | – | – | – | – | – | – | – | – | –
2 | O=C(c1cc(Cl)c(O)c(Cl)c1)N1CS(=O)(=O)c2ccccc21 [Dotinurad] | – | did not have any effect | did not have any effects | 0.007 | 1.2 | – | – | – | – | – | – | – | – | –
3 | CCc1oc2ccccc2c1C(=O)c1cc(Br)c(O)c(Br)c1 [Benzbromarone] | – | – | did not have any effects | – | – | 43 | 34 | not lower than those in intact rats | – | – | – | – | – | –
4 | CCCN(CCC)S(=O)(=O)c1ccc(C(=O)O)cc1 [Probenecid] | – | moderate but significant increase | significantly increased | 0.11 | – | 78 | 80 | not lower than those in intact rats | 73 | 244 | 1.7 | 79 | – | –
5 | Cc1nc(-c2ccc(OCC(C)C)c(C#N)c2)sc1C(=O)O [Febuxostat] | – | – | significantly increased | – | – | 35 | 44 | not lower than those in intact rats | 39 | 85 | 15.1 | – | 93 | 94
